Data published in patent US20230219951A1, “PYRIDINE-PYRIMIDINE DERIVATIVE, PREPARATION METHOD THEREFOR AND PHARMACEUTICAL USE THEREOF” (Jiangsu Hengrui Pharmaceuticals Co., Ltd., priority 2020, published 2023).

Columns and labels:
H358 cells = experiment: Inhibition of proliferation of H358 cells (CellTiter-Glo 3D); type: cell-based; conditions: Homo sapiens, NCI-H358, low adsorption plate, 120 h
Procedure: This example is intended to evaluate the inhibition effect of the compounds of the present disclosure on the KRAS target (containing the G12C mutation) by testing the inhibition effect of the compounds of the present disclosure on the proliferation of H358 cells.
H358 cells (ATCC, CRL-5807) were cultured in a complete medium, namely RPMI1640 medium (Hyclone, SH30809.01) containing 10% fetal bovine serum (Corning, 35-076-CV). On the first day of the experiment, the H358 cells were seeded into a 96-well low adsorption plate (Coming, CLS7007-24EA) at a density of 1500 cells/well with a complete medium to form 90 μL of cell suspension per well. The plate was centrifuged at 2000 rpm for 5 min at room temperature and then incubated overnight in a cell incubator at 37° C. with 5% CO2. The next day, 10 μL of test compound diluted in a gradient prepared with the complete medium was added to each well. The final concentrations of the compound were 9 concentration points obtained by 5-fold gradient dilution from 10 μM. A blank control containing 0.1% DMSO was set. The plate was incubated in a cell incubator at 37° C. with 5% CO2 for 120 h. On the seventh day, the 96-well cell culture plate was taken out and 50 μL of CellTiter-Glo® 3D reagent (Promega, G9682) was added into each well. The plate was shaken at room temperature for 25 min, pipetted and mixed well, from which 50 μL of the mixture was transferred into a white impermeable 96-well plate (PE, 6005290). The luminescence signal values were read using a multi-mode microplate reader (PerkinElmer, VICTOR 3).
IC50 values for the inhibitory activity of the compounds were calculated using Graphpad Prism software.

[1] = molecular target: T1, interaction between the KRAS protein subtype G12V and the SOS1 protein (Homo sapiens, UniProt Q07889); experiment: Inhibition of the interaction between KRAS G12V and SOS1 protein (AlphaLISA/AlphaScreen); type: binding; conditions: KRAS G12V + GST-TEV-SOS1(564-1049) + GDP
T1 construct: GST-TEV-SOS1(564-1049) (Viva Biotech, SOS1-191010); purchased SOS1: Viva Biotech; KRAS: Shanghai Panchao Biotechnology Co., Ltd. SOS1-191010
T1 sequence (Q07889 564-1049): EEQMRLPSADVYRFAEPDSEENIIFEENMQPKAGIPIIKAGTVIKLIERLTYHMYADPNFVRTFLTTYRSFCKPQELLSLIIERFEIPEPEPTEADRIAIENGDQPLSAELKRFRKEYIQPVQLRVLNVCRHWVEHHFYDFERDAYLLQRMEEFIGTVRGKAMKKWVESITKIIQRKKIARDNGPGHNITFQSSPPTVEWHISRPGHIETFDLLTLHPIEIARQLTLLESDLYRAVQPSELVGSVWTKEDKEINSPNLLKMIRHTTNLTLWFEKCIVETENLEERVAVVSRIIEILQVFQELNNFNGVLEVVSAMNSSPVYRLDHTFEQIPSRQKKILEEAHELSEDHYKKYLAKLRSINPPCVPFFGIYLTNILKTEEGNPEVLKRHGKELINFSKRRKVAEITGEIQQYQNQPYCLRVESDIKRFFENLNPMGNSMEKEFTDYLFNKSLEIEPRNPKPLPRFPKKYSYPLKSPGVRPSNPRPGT
Procedure: (§1) Test Example 1: Inhibitory Ability of Compounds of the Present Disclosure to the Interaction Between the KRAS Protein Subtype G12D or G12V and the SOS1 Protein. The inhibitory ability of the compounds of the present disclosure to the interaction between the KRAS protein subtype G12D or G12V and the SOS1 protein was determined by the following method. The experimental method was briefly described as follows:
(§2) 1. The experimental buffer was prepared prior to the start of the experiment: 1×PBS+0.1% BSA+0.05% tween 20.
(§3) 2. KRAS G12D and KRAS-G12V proteins were labeled with biotin using the biotin labeling kit.
(§4) 1. Firstly, the biotin-labeled KRAS G12D or KRAS G12V protein was mixed and incubated with the SOS1 protein and GDP for later use.
(§5) 2. AlphaLISA glutathione acceptor beads and AlphaScreen streptavidin donor beads were mixed at a ratio of 1:1 to make the concentration of 40 μg/mL for later use.
(§6) 3. The compound was formulated with the experimental buffer to obtain 10 concentration points by 5-fold gradient dilution from an initial concentration of 40 μM.
(§7) 4. In the 384-well microplate, 10 μL of a mixture of KRAS G12D or KRAS G12V protein and SOS1 and GDP and 5 μL of the diluted compound were added to each well and incubated at room temperature for 30 min away from the light.
(§8) 5. Then, 5 μL of a mixture of AlphaLISA glutathione acceptor beads and AlphaScreen streptavidin donor beads was added to each well and incubated at room temperature for 60 min away from the light.
(§9) 6. The fluorescence values were read on a multi-mode microplate reader.
(§10) 7. IC50 values of the compounds were calculated using Graphpad Prism.

[2] = molecular target: T2, interaction between the KRAS protein subtype G12D and the SOS1 protein (Homo sapiens, UniProt Q07889); experiment: Inhibition of the interaction between KRAS G12D and SOS1 protein (AlphaLISA/AlphaScreen); type: binding; conditions: KRAS G12D + GST-TEV-SOS1(564-1049) + GDP
T2 construct: GST-TEV-SOS1(564-1049) (Viva Biotech, SOS1-191010); purchased SOS1: Viva Biotech; KRAS: Shanghai Panchao Biotechnology Co., Ltd. SOS1-191010
T2 sequence (Q07889 564-1049): T1 sequence (Q07889 564-1049)
Procedure: as §1, §2, §3, §4, §5, §6, §7, §8, §9, §10

[3] = system: ERK phosphorylation of H358 cells; experiment: Inhibition of ERK phosphorylation of H358 cells (HTRF pERK/total ERK); type: cell-based; conditions: Homo sapiens, NCI-H358, 1 h incubation, pERK/total ERK ratio
Procedure: This experiment is intended to evaluate the inhibition effect of the compounds of the present disclosure on the KRAS target (containing the G12C mutation) according to IC50 by determining the inhibition effect of the compounds on ERK phosphorylation of the cells.
H358 cells (ATCC, CRL-5807) were cultured in RPMI1640 (Hyclone, SH30809.01) complete medium containing 10% fetal bovine serum. On the first day of the experiment, the H358 cells were seeded into a 96-well plate at a density of 25,000 cells/well with a complete medium to form 190 μL of cell suspension per well. The plate was incubated overnight in a cell incubator at 37° C. with 5% CO2. The next day, 10 μL of test compound diluted in a gradient prepared with the complete medium was added to each well. The final concentrations of the compound were 9 concentration points obtained by 5-fold gradient dilution from 10 μM. A blank control containing 0.1% DMSO was set. The plate was incubated in a cell incubator at 37° C. with 5% CO2 for 1 h. 1 h later, the 96-well cell culture plate was taken out, the medium was removed by pipetting, 200 μL PBS (Shanghai BasalMedia Technologies Co., Ltd., B320) was added to each well, and the cells were washed once. PBS was removed by pipetting, 50 μL of lysis buffer (Cisbio, 64KL1FDF) containing a blocking reagent (Cisbio, 64KB1AAC) was added to each well, and the plate was shaken on a shaker at room temperature for 40 min for lysis. After lysis, the lysate was pipetted and mixed well, 16 μL of lysate was transferred from each well to each of two HTRF 96-well assay plates (Cisbio, 66PL96100), and then 4 μL of premixed phospho-ERK1/2 antibody solution (Cisbio, 64AERPEG) or 4 μL of premixed total-ERK1/2 antibody solution (Cisbio, 64NRKPEG) was added to each of the two plates. The microplate was sealed with a sealing membrane, centrifuged for 1 min in a microplate centrifuge, and incubated overnight at room temperature away from the light. On the third day, the fluorescence values at an excitation wavelength of 337 nm and at emission wavelengths of 665 nm and 620 nm were read using a PHERAstar multi-mode microplate reader (BMG Labtech, S/N 471-0361).
IC50 values for inhibitory activity of the compounds were calculated using Graphpad Prism software based on compound concentrations and pERK/total ERK ratio.

Structure (SMILES) | IC50 (H358 cells) | IC50 [1] | IC50 [2] | IC50 [3]
Cc1nc(N[C@H](C)c2cccc3c2OCC3(F)F)c2cc([C@]3(O)CC[C@H](O)CC3)c(=O)[nH]c2n1 (racemic) [Example 25-p2, rac-4-(((R)-1-(3,3-difluoro-2,3-dihydrobenzofuran-7-yl)ethyl)amino)-6-((1r,4R)-1,4-dihydroxycyclohexyl)-2-methylpyrido[2,3-d]pyrimidin-7(8H)-one] | 1020 nM | 65 nM | 37 nM | 489 nM
Cc1nc(N[C@H](C)c2cccc(C(F)(F)CO)c2F)c2cc(C3=CCOCC3)c(=O)[nH]c2n1 [Example 1, (R)-4-((1-(3-(1,1-difluoro-2-hydroxyethyl)-2-fluorophenyl)ethyl)amino)-6-(3,6-dihydro-2H-pyran-4-yl)-2-methylpyrido[2,3-d]pyrimidin-7(8H)-one] | 34 nM | 54 nM | 22 nM | 59 nM
CC(=O)N1CC=C(c2cc3c(N[C@H](C)c4cc(N)cc(C(F)(F)F)c4)nc(C)nc3[nH]c2=O)CC1 [Example 4, (R)-6-(1-acetyl-1,2,3,6-tetrahydropyridin-4-yl)-4-((1-(3-amino-5-(trifluoromethyl)phenyl)ethyl)amino)-2-methylpyrido[2,3-d]pyrimidin-7(8H)-one] | 97 nM | 67 nM | 17 nM | 41 nM
CC(=O)N1CCC(O)(c2cc3c(N[C@H](C)c4cccc(C(F)F)c4F)nc(C)nc3[nH]c2=O)CC1 [Example 12, (R)-6-(1-acetyl-4-hydroxypiperidin-4-yl)-4-((1-(3-(difluoromethyl)-2-fluorophenyl)ethyl)amino)-2-methylpyrido[2,3-d]pyrimidin-7(8H)-one] | 55 nM | 50 nM | 14 nM | 48 nM
Cc1nc(N[C@H](C)c2cccc(C(F)F)c2F)c2cc([C@]3(O)CC[C@H](O)CC3)c(=O)[nH]c2n1 [Example 18-p2, 4-(((R)-1-(3-(difluoromethyl)-2-fluorophenyl)ethyl)amino)-6-((1r,4R)-1,4-dihydroxycyclohexyl)-2-methylpyrido[2,3-d]pyrimidin-7(8H)-one] | 213 nM | 112 nM | 40 nM | 222 nM
Cc1nc(N[C@H](C)c2cccc(C(F)F)c2F)c2cc(OC3CN(C(=O)CF)C3)c(=O)[nH]c2n1 [Example 27, (R)-4-((1-(3-(difluoromethyl)-2-fluorophenyl)ethyl)amino)-6-((1-(2-fluoroacetyl)azetidin-3-yl)oxy)-2-methylpyrido[2,3-R]pyrimidin-7(8H)-one] | 202 nM | 52 nM | 20 nM | 258 nM
Cc1nc(N[C@H](C)c2cccc(C(F)F)c2F)c2cc([C@]3(O)CC[C@@H](O)CC3)c(=O)n(C)c2n1 [Example 28-p1, 4-(((R)-1-(3-(difluoromethyl)-2-fluorophenyl)ethyl)amino)-6-((1s,4S)-1,4-dihydroxycyclohexyl)-2,8-dimethylpyrido[2,3-d]pyrimidin-7(8H)-one] | 243 nM | 97 nM | 100 nM | 231 nM

Continued, in another order:

IC50 (H358 cells) | IC50 [1] | IC50 [2] | Structure (SMILES) | IC50 [3]
97 nM | 136 nM | 39 nM | Cc1nc(N[C@H](C)c2cccc(C(F)F)c2F)c2cc(N3CCOCC3)c(=O)[nH]c2n1 [Example 16, (R)-4-((1-(3-(difluoromethyl)-2-fluorophenyl)ethyl)amino)-2-methyl-6-morpholinopyrido[2,3-d]pyrimidin-7(8H)-one] | 218 nM
65 nM | 30 nM | 28 nM | Cc1nc(N[C@H](C)c2cccc(C(F)F)c2F)c2cc(C3CCN(C(=O)CC#N)CC3)c(=O)[nH]c2n1 [Example 17, (R)-3-(4-(4-((1-(3-(difluoromethyl)-2-fluorophenyl)ethyl)amino)-2-methyl-7-oxo-7,8-dihydropyrido[2,3-d]pyrimidin-6-yl)piperidin-1-yl)-3-oxopropanenitrile] | 79 nM
118 nM | 60 nM | 19 nM | COCC(=O)N1CCC(c2cc3c(N[C@H](C)c4cccc(C(F)F)c4F)nc(C)nc3[nH]c2=O)CC1 [Example 20, (R)-4-((1-(3-(difluoromethyl)-2-fluorophenyl)ethyl)amino)-6-(1-(2-methoxyacetyl)piperidin-4-yl)-2-methylpyrido[2,3-d]pyrimidin-7(8H)-one] | 78 nM
62 nM | 54 nM | 15 nM | Cc1nc(N[C@H](C)c2cccc(C(F)F)c2F)c2cc(C3(O)CCN(C(=O)CC#N)CC3)c(=O)[nH]c2n1 [Example 21, (R)-3-(4-(4-((1-(3-(difluoromethyl)-2-fluorophenyl)ethyl)amino)-2-methyl-7-oxo-7,8-dihydropyrido[2,3-d]pyrimidin-6-yl)-4-hydroxypiperidin-1-yl)-3-oxopropanenitrile] | 87 nM
